Assay results taken from the NIST ThermoML archive (doi:10.1016/j.jct.2009.03.010).

Experiments:
[1] = Crystal; DTA
[2] = Molar enthalpy of transition or fusion; details: Crystal; DSC
[3] = molar heat capacity at constant pressure; details: 101.33 kPa, Crystal

c1cc2ccc3ccc4ccc5ccc6ccc1c1c2c3c4c5c61 [coronene]
Details	Molar enthalpy of transition or fusion [kcal/mol]	Normal melting temperature [°C]
[1]	–	436
[2]	5.07	–

molar heat capacity at constant pressure [J/K/mol], [3]
Details	DSC	Small sample (50 mg) DSC
295 K	–	312.97
298.15 K	317.46	317.17
300 K	–	318.97
310 K	–	333.99
320 K	–	344.5
330 K	–	355.32
340 K	–	366.43
350 K	–	373.94
360 K	–	383.85
370 K	–	394.66
380 K	–	405.18
410 K	–	417.19
420 K	–	422.3
430 K	–	435.51
440 K	–	439.12
450 K	–	447.82
460 K	–	453.83
470 K	–	463.44
478 K	–	470.65
